Values of other authors as cited in patent US12365919B2, “Serum-free suspension system for lentiviral production” (priority 2016, dated 2025).

Test system: lentiviral vector production
Conditions: serum-based culture system; worked only ~50% as well as caffeine

CCCC(=O)[O-].[Na+] [sodium butyrate]
lentiviral vector production enhancement, relative to caffeine: ~50%
